Here are results for 2 molecules from article PMC11267003, “Interdomain communication in a homodimeric ABC transporter” (The Journal of Biological Chemistry, 2024).

Substitutions are numbered along the chain they refer to. No end group written: not given here.

The target in test [1] is human coreTAPL (TAPL, ABCB9) (Homo sapiens, UniProt Q9NP78, D278A). Kind of test: biochemical.
Test [2] has as its target human coreTAPL (TAPL, ABCB9) (Homo sapiens, UniProt Q9NP78, R288A). The test can be described thus: biochemical.
Test [3] addresses human coreTAPL (TAPL, ABCB9) (Homo sapiens, UniProt Q9NP78). Kind of test: biochemical.
Test [4] has as its target human coreTAPL (TAPL, ABCB9) (Homo sapiens, UniProt Q9NP78, D292A). Kind of test: biochemical.
Test [5] has as its target T1, human coreTAPL R288A, C-terminal mVenus-His10 fusion (human, UniProt Q9NP78 143-766, R288A).
T1 construct: human TAPL (ABCB9), coreTAPL, amino acids 143-766; Mutant of the mVenus fusion construct; TEV site between coreTAPL and mVenus; also called R288A^mV; source: Sf21 insect cells (baculovirus), purified by Ni-NTA after solubilisation in GDN or DDM; reconstituted into liposomes for transport and hydrolysis assays; not shown: mVenus, C-terminal, kept
T1 sequence (looked up): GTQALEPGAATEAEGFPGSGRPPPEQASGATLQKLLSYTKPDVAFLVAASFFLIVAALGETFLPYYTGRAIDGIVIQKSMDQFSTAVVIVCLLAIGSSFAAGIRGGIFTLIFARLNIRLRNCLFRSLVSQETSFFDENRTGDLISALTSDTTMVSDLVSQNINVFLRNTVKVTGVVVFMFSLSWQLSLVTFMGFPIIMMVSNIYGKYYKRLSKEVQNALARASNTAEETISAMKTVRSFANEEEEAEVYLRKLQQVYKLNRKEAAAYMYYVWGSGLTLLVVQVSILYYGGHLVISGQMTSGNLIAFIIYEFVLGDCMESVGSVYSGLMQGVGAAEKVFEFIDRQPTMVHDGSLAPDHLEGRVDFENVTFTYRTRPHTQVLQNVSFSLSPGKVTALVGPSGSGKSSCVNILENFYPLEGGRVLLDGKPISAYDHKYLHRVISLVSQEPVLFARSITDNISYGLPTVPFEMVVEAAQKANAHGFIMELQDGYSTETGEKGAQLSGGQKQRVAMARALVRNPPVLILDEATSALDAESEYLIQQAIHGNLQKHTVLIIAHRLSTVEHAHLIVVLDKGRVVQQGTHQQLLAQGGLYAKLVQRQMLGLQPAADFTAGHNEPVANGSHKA
Kind of test: MST; 5 nM C4^Atto-655 with 5 μM GDN-purified TAPL variant in GDN-containing elution buffer, 22 °C, single concentration. The following applies: both partners purified.

The target in test [6] is T2, human coreTAPL wildtype (transporter associated with antigen processing-like, ABCB9), C-terminal mVenus-His10 … (human, UniProt Q9NP78 143-766).
T2 construct: human TAPL (ABCB9), coreTAPL without the N-terminal TMD0, amino acids 143-766; A tobacco etch virus cleavage site lies between coreTAPL and mVenus; no cleavage is reported for the mVenus constructs, so the His10 behind mVenus was probably still there; also called wt; wt TAPL; source: Sf21 insect cells (baculovirus), purified by Ni-NTA after solubilisation in GDN or DDM; reconstituted into …
T2 sequence (looked up): T1 sequence (looked up) with A146R
The description is as above. The following applies: both partners purified.

In test [7] the target is T3, human coreTAPL D278A, C-terminal mVenus-His10 fusion (human, UniProt Q9NP78 143-766, D278A).
T3 construct: human TAPL (ABCB9), coreTAPL, amino acids 143-766; Mutant of the mVenus fusion construct; TEV site between coreTAPL and mVenus; also called D278A^mV; source: Sf21 insect cells (baculovirus), purified by Ni-NTA after solubilisation in GDN or DDM; reconstituted into liposomes for transport and hydrolysis assays; not shown: mVenus, C-terminal, kept
T3 sequence (looked up): T1 sequence (looked up) with D136A, A146R
Described as above. The settings on record: both partners purified.

Test [8] addresses T4, human coreTAPL D292A, C-terminal mVenus-His10 fusion (human, UniProt Q9NP78 143-766, D292A).
T4 construct: human TAPL (ABCB9), coreTAPL, amino acids 143-766; Mutant of the mVenus fusion construct; TEV site between coreTAPL and mVenus; also called D292A^mV; source: Sf21 insect cells (baculovirus), purified by Ni-NTA after solubilisation in GDN or DDM; reconstituted into liposomes for transport and hydrolysis assays; not shown: mVenus, C-terminal, kept
T4 sequence (looked up): T1 sequence (looked up) with A146R, D150A
Described as above. The following applies: both partners purified.

human coreTAPL (TAPL, ABCB9) (Homo sapiens, UniProt Q9NP78, D292A), sequence (Q9NP78 143-766 D292A): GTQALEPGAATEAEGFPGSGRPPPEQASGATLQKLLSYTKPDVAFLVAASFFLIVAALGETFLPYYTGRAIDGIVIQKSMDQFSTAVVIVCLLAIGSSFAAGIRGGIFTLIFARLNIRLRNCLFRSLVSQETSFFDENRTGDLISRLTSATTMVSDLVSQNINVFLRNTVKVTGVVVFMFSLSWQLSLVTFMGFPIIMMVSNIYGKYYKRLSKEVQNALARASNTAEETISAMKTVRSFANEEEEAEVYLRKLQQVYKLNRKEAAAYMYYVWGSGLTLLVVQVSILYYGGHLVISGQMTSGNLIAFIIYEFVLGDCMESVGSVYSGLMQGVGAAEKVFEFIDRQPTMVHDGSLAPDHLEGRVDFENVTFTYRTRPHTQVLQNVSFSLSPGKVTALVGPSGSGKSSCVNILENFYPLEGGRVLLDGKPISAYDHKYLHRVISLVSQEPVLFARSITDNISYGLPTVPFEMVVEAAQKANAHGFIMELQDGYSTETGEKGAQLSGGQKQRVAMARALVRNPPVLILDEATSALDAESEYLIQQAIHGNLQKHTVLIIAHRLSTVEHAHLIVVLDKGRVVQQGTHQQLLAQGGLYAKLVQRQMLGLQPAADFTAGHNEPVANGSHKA
human coreTAPL (TAPL, ABCB9) (Homo sapiens, UniProt Q9NP78), sequence (Q9NP78 143-766): as the sequence (Q9NP78 143-766 D292A) above, with A150D counted along it
human coreTAPL (TAPL, ABCB9) (Homo sapiens, UniProt Q9NP78, D278A), sequence (Q9NP78 143-766 D278A): as the sequence (Q9NP78 143-766 D292A) above, with D136A, A150D counted along it

Take `Nc1ncnc2c1ncn2[C@@H]1O[C@H](COP(=O)(O)OP(=O)(O)OP(=O)(O)O)[C@@H](O)[C@H]1O` [ATP]: the IC50 in test [1] stood at 900 ± 200 nM; in test [2], 5600 ± 1700 nM; in test [3], 1900 ± 1300 nM; in test [4] it was 1300 ± 800 nM.

B1: peptide C4^Atto-655 (RRYC^Atto-655KSTEL) (peptide)
peptide: RRYC(Atto‑655)KSTEL
notes: synthetic 9-mer peptide C4; source: synthetic peptide (Fmoc solid-phase synthesis), labelled, purified by reversed-phase HPLC
B1: the binding result in test [5], in test [6], in test [7] and in test [8] was “binds” in each case.

By IC50 is commonly meant the concentration that gives 50% inhibition.
